From patent US11938138B2, “Methods for improved treatment of cancer” (Washington University, priority 2020, dated 2024)
Where two headings read alike, the source gives them in different places.

Legend:
BRD4 = BRD4 CRISPRi of K562 cells; assay type: cell-based, human
Description: For CRISPRi, we first made lentivirus expressing dCas9-KRAB (Fulco et al., 2016; Xie et al., 2017) from Addgene plasmid #89567, a gift from Gary Hon, packaged in HEK293T cells along with pMD2.G (Addgene plasmid #12259) and psPAX2 (Addgene plasmid #12260), both gifts from Didier Trono. We cloned a BRD4 guide RNA, selected from the Dolcetto collection (Sanson et al., 2018), into the sgOpti plasmid (Addgene plasmid #85681, a gift from Eric Lander & David Sabatini) using Golden Gate assembly with Esp3I. We used an in-house pipeline to design a non-targeting gRNA sequence, which was cloned into CROP-seq-opti (Lalli et al., 2019). Plasmids were transfected into HEK293T cells using Lipofectamine 2000. Media was collected after 24 and 48 hours, and subsequently concentrated using Lenti-X Concentrator. Viral titers were functionally assed on HEK293T cells using the appropriate antibiotic (blasticidin or puromycin).
Next, we generated a polyclonal pool of dCas9-KRAB-expressing K562 cells. We seeded each well of a 6-well plate with 200,000 cells each containing 2 mL of growth media supplemented with 4 μg/ml polybrene and 1,000,000 infectious lentiviral particles for an estimated multiplicity of infection (MOI) of 5. Plates were centrifuged at 2,000 g for 30 minutes and returned to the incubator. After 48 hours, cells were split to mid-log phase concentration (˜400,000 cells/nil) and selected on blasticidin (10 μg/ml) for 48 hours. We made frozen stocks from these cells.
For the knockdown experiments, cells were thawed and allowed to recover for 4 days. We confirmed that the proportions of CD24^high/CD24^low was approximately equal at this point. We then seeded 200,000 cells into each well of a 6-well plate. Three wells received the BRD4 gRNA lentivirus, while the other three received the non-targeting gRNA lentivirus, at MOI 2.5. We followed the same transduction protocol described above. After 48 hours of incubation, puromycin was added to the medium at a final concentration of 2 μg/ml. After a further 48 hours, cells were passaged 1:1 into 10 cm dishes containing 10 mL of growth medium. […]

K562 cells [1] = settings: Litzenburger et al., 2017; cited from earlier work
K562 cells [2] = assay: Cell cycle perturbation of K562 cells (DNA content, CD24, annexin V/PI); assay type: cell-based, human; settings: for cells in G1 phase / G1 arrest / G2 arrest: 36 hours of treatment; for cells in G1 phase / G1 arrest: CVT-313 2 μM (p<0.05), lovastatin 12 μM (p<0.01), FIG. 14G; for G2 arrest: one-way ANOVA p<0.01
Protocol: CD24 surface protein was quantified using monoclonal human antibodies. Cells were spun down at 300 g for 3 minutes and washed twice with 1 mL of Cell Staining Buffer. The cell pellet was then resuspended in 50 μl of Cell Staining Buffer containing 0.2 μg of either CD24-APC or CD24-BV421. The tube was rotated at 4° C. in the dark for 30 minutes. After, cells were washed twice (as before) and finally resuspended in 200 μl of Cell Staining Buffer. Cells were excited with 450/45 and 660/20 lasers (wavelength/filter bandwidth, both in nm). For concomitant analysis of DNA content, we used CD24-APC. Cells were incubated with 10 μg/ml Hoechst 33342 in 5 mL of growth medium for 30 minutes prior to the staining protocol. For simultaneous assessment of apoptosis, cells were stained with CD24-BV421. After the final wash, instead of resuspending in 200 μl of Cell Staining Buffer, cells were washed twice with Annexin V Staining Buffer. Cells were then incubated in 50 μl Annexin V Staining Buffer containing 0.2 μg Annexin V-FITC and 100 μg/ml propidium iodide (PI). The reaction was incubated for 15 minutes at room temperature in the dark. Afterward, we added 150 μl of Annexin V Staining Buffer and proceeded to flow cytometry. All samples were measured on a Beckman-Coulter CytoFLEX S flow cytometer. Cells were excited with 450/45, 525/40, and 610/20 lasers. We collected 10,000 events per sample. The resulting data were processed with FlowJo Software for Mac Version 10.
We perturbed the cell cycle with lovastatin and nocodazole, two drugs classically used to synchronize cells in culture (Jackman and O'Connor, 2001), as well as the cyclin-dependent kinase inhibitors CVT-313 (Brooks et al., 1997) and RO-3306 (Vassilev et al., 2006). All drugs were dissolved in DMSO except nocodazole, which was dissolved in ethanol. […] Media was refreshed every 48 hours. After 36 hours of treatment, we stained for CD24 levels and nuclear DNA content. We gated for live, single cells using the forward scatter (FSC) and side scatter channels (SSC). Univariate cell cycle analysis was performed with FlowJo. We confirmed that all drugs perturbed cell cycle by altering the proportions of cells in either G1 or G2/M phase (FIG. 14G). […] Cultures remained under drug treatment until five days had elapsed, at which point we measured CD24 levels and stained for apoptosis (FIG. 14H). As before, we set gates to exclude debris to quantitate annexin V and PI, and measured CD24 in live cells gated on FSC and SSC. The G2 inhibitors, in particular, had very few cells in the FSC/SSC gate (typically below 5%).
For the analysis of annexin V levels in either JQ1- or DMSO-treated CD24^high and CD24^low cells, we used a three-way ANOVA with treatment, cell state, and day as independent variables. […] Multiple hypothesis correction was performed using Tukey's honestly significant difference. For the cell cycle inhibitor experiment, data were analyzed using a one-way ANOVA with Dunnett's post hoc test using either DMSO or EtOH (for RO-3306) as controls.

[3] = tested on: Relapsed/refractory lymphoma; settings: cited from earlier work
Acute leukemia, MDS = settings: cited from earlier work; for DLTs: G3
[4] = tested on: Relapsed/refractory lymphoma or multiple myeloma; settings: cited from earlier work
NMC, CRPC, NSCLC = settings: cited from earlier work
[5] = tested on: Relapsed/refractory leukemia; settings: cited from earlier work
NMC = settings: cited from earlier work; for toxicities of interest: 4 patients (case series)
[6] = tested on: Hematologic and solid malignancies; 17 with NMC; settings: cited from earlier work
[7] = tested on: Advanced solid tumors or NHL; settings: cited from earlier work; for DLTs: G3, at 80 mg, 8 patients
[8] = nocodazole 40 ng/μl, RO-3306 4.5 μM

## BRD4 gRNA: guide RNA GCGGCTGCCGGCGGTGCCCG for knockdown of BRD4 with CRISPRi (dCas9-KRAB) (listed as DNA, chemistry not given here)
BRD4; imatinib 1 μM, Tukey's HSD p=0.68 (FIG. 14E-14F)
  sensitization of K562 cells to imatinib: partially phenocopied
BRD4; nine days after gRNA transduction, Welch's t test p<0.01 (FIG. 6E), not to the same levels as JQ1
  proportion of CD24high cells compared to non-targeting (NT) gRNA: significant decrease
BRD4; qRT-PCR (FIG. 14D)
  reduction of BRD4 mRNA levels: less than 50%

## Cc1ccc(NC(=O)c2ccc(CN3CCN(C)CC3)cc2)cc1Nc1nccc(-c2cccnc2)n1 [imatinib]
K562 cells [1]
  apoptosis of CD24low versus CD24high K562 cells when exposed to imatinib: more apoptosis

## COc1ccc(CNc2nc(N(CCO)CCO)nc3c2ncn3C(C)C)cc1 [CVT-313]
K562 cells [2]
  cells in G1 phase / G1 arrest: significant increase

## COC(=O)Nc1nc2ccc(C(=O)c3cccs3)cc2[nH]1 [nocodazole]
K562 cells [2]; [8]
  G2 arrest: significant G2 arrest
K562 cells [2]; K562, nocodazole 40 ng/μl, RO-3306 4.5 μM
  surviving cells after five days of treatment: very few surviving cells

## CC[C@H](C)C(=O)O[C@H]1C[C@@H](C)C=C2C=C[C@H](C)[C@H](CC[C@@H]3C[C@@H](O)CC(=O)O3)[C@H]21 [lovastatin]
K562 cells [2]
  cells in G1 phase / G1 arrest: significant decrease

## Cc1noc2c1-c1ccccc1C(c1ccc(Cl)cc1)=N[C@H]2CC(N)=O [CPI-0610]
[3]; dose dependent, reversible
  primary toxicity: thrombocytopenia;
[3]; number of patients of 44
  Responses observed: CR: 2
  Responses observed: PR: 1
  Responses observed: SD: PR; 6 SD
  Responses observed: with responses not qualifying as PR: 5 with
[3]; of 44 patients
  patients with G3 diarrhea: 1 patient with
  patients with G4 thrombocytopenia: 1 patient with

## Cc1sc2c(c1C)C(c1ccc(Cl)cc1)=N[C@@H](CC(=O)Nc1ccc(O)cc1)c1nnc(C)n1-2 [MK-8628/OTX015]
Acute leukemia, MDS; diarrhea
  DLTs: diarrhea, G3
Acute leukemia, MDS; fatigue
  DLTs: fatigue.
Acute leukemia, MDS; limited compliance
  diarrhea: (34%),
  rash: rash (20%)
Acute leukemia, MDS; number of patients of 41
  Responses observed: CR: 2
  Responses observed: CRi (platelets) × 2 months: 1
Acute leukemia, MDS; q.d.s. × 14/21 days, 41 patients
  RP2D: 80 mg
[4]; G3
  DLTs: hyponatremia
[4]; G4, neutropenia
  DLTs: neutropenia,
[4]; G4, thrombocytopenia
  DLTs: thrombocytopenia, G4
[4]; number of patients of 45
  Responses observed: OR (DLBCL): 3 OR
  Responses observed: with improvement of pleural effusion: (DLBCL), 1
  Responses observed: with resolution of B symptoms: effusion; 2
  Responses observed: with responses not meeting PR criteria: 2 with
[4]; q.d.s. × 14/21 days, 45 patients
  RP2D: 80 mg
[4]; toxicity incidence
  anemia: (91%)
  diarrhea: (47%),
  dysgeusia: (15%),
  fatigue: (27%),
NMC, CRPC, NSCLC; number of patients of 47
  Responses observed: PR: 4
NMC, CRPC, NSCLC; number of patients of 47, for 4-8 months
  Responses observed: SD: 5
NMC, CRPC, NSCLC; toxicity incidence
  G3-4 thrombocytopenia: (20%), G3
  G3 anemia: (9%), G3
  G3 fatigue: fatigue (7%)
[5]; number of patients of 36
  Responses observed: CR: 1 CR; 1 CRi
  Responses observed: CRi (platelets): 1 CR; 1 CRi
  Responses observed: with disappearance of hypertrophied gums: clearance, 1
[5]; q.d.s., 36 patients
  MTD: 120 mg
[5]; toxicity incidence
  abdominal pain: pain (11%),
  decreased factor VII: (21%)
  dysgeusia: (11%),
NMC; G2, dysgeusia
  toxicities of interest: dysgeusia,
NMC; G2, fatigue
  toxicities of interest: G2 fatigue
NMC; G2, hyperglycemia
  toxicities of interest: hyperglycemia,
NMC; G2, nausea
  toxicities of interest: G2 nausea, G2
NMC; G3
  toxicities of interest: thrombocytopenia,
NMC; number of patients of 4
  Responses observed: PR: 2
  Responses observed: SD: 1

## CCNC(=O)C[C@@H]1N=C(c2ccc(Cl)cc2)c2cc(OC)ccc2-n2c(C)nnc21 [GSK525762]
[6]; 17 with NMC
  Responses observed: PR in NMC patients: 2
  Responses observed: SD in NMC patients: 4
[6]; daily, 70 patients
  RP2D: 80 mg

## O=C1NC(=NCc2cccs2)S/C1=C\c1ccc2ncccc2c1 [RO-3306]
K562 cells [2]; [8]
  G2 arrest: significant G2 arrest

## CNC(=O)N1N=C(c2ccc(N3CCN(C)CC3)cc2)c2cc(OC)c(OC)cc2C[C@@H]1C [BAY1238097]
[7]; 5-40 mg 2×/week in 21 day cycle
  Development (as DLTs occurred at subtherapeutic doses of drug): halted as
[7]; 10 and 40 mg cohorts
  Recurrent headaches, patients: in 50%
[7]; headache
  DLTs: headache,
[7]; low back pain
  DLTs: G3 low back
[7]; vomiting
  DLTs: G3 vomiting,
